Laboratory results from patent publication US7208146B2, “Methods of treating lymphoma and leukemia” (Genitope Corporation, priority 1996, dated 2007).

Tested on: parental BW5147.G.1.4 cells
Experiment: MTX sensitivity (growth cut off) of the parental cell line
Assay type: cell-based
Description: The parental (i e., non-transfected) BW5147.G.1.4 cells barely grow in the presence of 10 nM MTX. By visual inspection 3 to 5 days after plating, greater than about 98 percent of the parental BW5147.G.1.4 cells are killed when 1×10^4 cells are placed in 2 ml of medium containing 20 nM MTX in the well of a 24 well plate (this level of MTX is referred to as the growth cut off for the parental BW5147.G.1.4 cell line). At 30 nM MTX, colonies of BW5147.G.1.4 cells are seen at a frequency of less than 10^−7.
The transfected and selected cells (“selectants”) are plated in a range of MTX concentrations ranging from 10 to 100 nM; the cells are plated at a density of 1 to 5×10^4 cells per well in a 24 well plate (Costar); the selectants are plated at the same density of cells as was used to determine the level of MTX at which > about 98% of the parental cells were killed. This is done because MTX irreversibly binds to DHFR so that the number of cells present in a given volume effects the concentration of MTX required to kill the cells; that is if a higher density of cell is used, a higher concentration of MTX will be required to kill about 98% of the cells [For example when the parental cells are plated at a density of 1×10^4 cells/2 ml medium in the well of a 24 well plate 20 nM MTX is sufficient to kill >98% cells in a 3 to 5 day assay. If the density is increased two-fold (1×10^4 cells in ml medium), 25 nM MTX is required for >98% killing. If 5×10^4 cells are placed in 2 ml of medium in the well of a 24 well plate, 30 nM MTX is required to achieve >98% killing.]
Eight selectant clones having the highest levels of expression of DR were chosen for further manipulation. These eight selectant clones were then tested for their sensitivity to MTX. Each clone was plated at a density of 2×10^4 cells/well in a 24 well plate. Each well contained 1 ml of medium containing RPMI-1640, 10% dialyzed FCS and MTX. The clones were grown in the presence of either 3, 10, 30, 60 or 90 nM MTX. Non-transfected BW5147.G.1.4 cells were also grown in the above range of MTX as a control. Clones which grew in MTX levels at least 2–3 fold higher than that tolerated by the parental BW5147.G.1.4 (typically less than or equal to 10 nM MTX) were selected for further analysis. Four of the selectant clones grew in greater than or equal to 30 nM MTX and were retained; these clones are the primary transfectants chosen for amplification. All 4 clones which grew in >30 nM MTX were analyzed for the ability to express DR molecules on the surface by an ELISA. The cell surface ELISA was performed as follows.

SMILES: CN(Cc1cnc2nc(N)nc(N)c2n1)c1ccc(C(=O)N[C@@H](CCC(=O)O)C(=O)O)cc1 [MTX, methotrexate]
- growth of parental cells in the presence of MTX (10 nM MTX): barely grow
- parental BW5147.G.1.4 cells killed (20 nM MTX, 1×10^4 cells in 2 ml medium, well of a 24 well plate, visual inspection 3 to 5 days after plating): greater than 98%
- frequency of colonies of BW5147.G.1.4 cells (30 nM MTX): less than 10^−7
- MTX concentration sufficient to kill >98% of parental cells (1×10^4 cells/2 ml medium, 24 well plate, 3 to 5 day assay): 20 nM
- MTX level tolerated by parental BW5147.G.1.4 (2×10^4 cells/well in 1 ml, 24 well plate, RPMI-1640 with 10% dialyzed FCS): less than or equal to 10 nM
- MTX concentration required for >98% killing of parental cells (5×10^4 cells in 2 ml medium, 24 well plate): 30 nM
- MTX concentration required for >98% killing of parental cells (density increased two-fold (1×10^4 cells in ml medium)): 25 nM
